Test results reported in patent US20250353891A1 (MEDIMMUNE LIMITED, priority 2022, published 2025).
Starred links: 1 amine or outer side, 2 acyl side, 3 side chain; linkers in the order of their positions; H or OH if unused. Non-standard residues stand in square brackets, D forms with d. Residues, ends and D or L forms follow the SMILES beside them. Groups on a side chain read outwards from the residue. *: point of attachment. C18 diacid = O=C(O)CCCCCCCCCCCCCCCCC(=O)*; γGlu = O=C(O)[C@H](CCC(=O)[*:2])N[*:1]; αMeF = C[C@](N)(Cc1ccccc1)C(=O)O; Aib = CC(C)(N)C(=O)O

Experiments:
[1] = Proteolytic resistance to FasSSGF containing porcine pancreatic pepsin; format: in vitro ADME; details: pig, simulated gastric fluid
In short: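 Peptide (250 μM stock in FasSSGF) mixed 1:1 with porcine pepsin stock (0.5 mg/mL in FasSSGF) and held at 37° C; samples at 0, 5, 10, 15 and 30 min quenched in ammonium bicarbonate, pH 8. Intact peptide remaining estimated by RP-HPLC peak area, UV 210 nm.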

[2] = test system: wildtype (WT) mice; experiment: Glucose change in wildtype mice; format: in vivo, mouse; details: s.c., 120 min vs 0 min, somatostatin pretreatment (octreotide) 30 min prior to cpd
In short: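 Wildtype mice aged 8-14 weeks, fasted 2 h, sometimes pre-treated with octreotide 10 mg/kg 30 min before peptide injection. Blood glucose by glucometer at -30, 0, 30, 60, 120, 180, 240 and 360 min; n=4-8/group, mice reused up to 3 times with ≥1 week wash-out.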

[3] = biological target: human glucagon receptor (hGCGR) (Homo sapiens, UniProt P47871); experiment: cAMP production (HTRF) in CHO cells expressing hGCGR; format: cell-based; design: expressed in transfected cells; details: Table 6, peptides modified at position 17; cAMP in CHO hGCGR cells; geometric mean; read-out: hGluc-R EC50
Chain of human glucagon receptor (hGCGR) (P47871 26-477): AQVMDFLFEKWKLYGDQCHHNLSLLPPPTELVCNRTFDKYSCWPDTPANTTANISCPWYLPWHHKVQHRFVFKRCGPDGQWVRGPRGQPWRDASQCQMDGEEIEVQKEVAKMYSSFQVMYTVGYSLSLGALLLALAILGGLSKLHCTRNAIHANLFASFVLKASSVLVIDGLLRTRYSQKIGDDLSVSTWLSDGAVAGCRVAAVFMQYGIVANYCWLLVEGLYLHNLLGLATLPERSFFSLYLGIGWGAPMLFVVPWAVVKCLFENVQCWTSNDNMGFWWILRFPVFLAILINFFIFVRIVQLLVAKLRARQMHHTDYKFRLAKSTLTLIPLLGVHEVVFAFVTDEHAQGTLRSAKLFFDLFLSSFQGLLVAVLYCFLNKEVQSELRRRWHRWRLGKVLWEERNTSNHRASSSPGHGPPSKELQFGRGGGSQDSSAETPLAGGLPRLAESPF
In short: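 Potency values represent EC50 from 4-parameter logistic curves of HTRF % Delta F signal. Receptor-expressing CHO cells (hGCGR 2×10^5 cells/mL, hGLP-1R 1×10^5 cells/mL) were exposed for 30 min at room temperature before two-step cAMP detection.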

**Q.** With `CC[C@H](C)[C@H](NC(=O)[C@H](Cc1c[nH]c2ccccc12)NC(=O)[C@H](CCC(=O)O)NC(=O)[C@@H](NC(=O)[C@](C)(Cc1ccccc1)NC(=O)[C@H](CC(=O)O)NC(=O)[C@H](CCC(N)=O)NC(=O)[C@H](C)NC(=O)[C@H](C)NC(=O)[C@H](CCCCNC(=O)CC[C@H](NC(=O)CCCCCCCCCCCCCCCCC(=O)O)C(=O)O)NC(=O)[C@H](CO)NC(=O)[C@H](CC(=O)O)NC(=O)[C@H](CC(C)C)NC(=O)[C@](C)(Cc1ccccc1)NC(=O)[C@H](CCCCN)NC(=O)[C@H](CO)NC(=O)[C@@H](NC(=O)[C@H](CC(=O)O)NC(=O)[C@H](CO)NC(=O)[C@@H](NC(=O)[C@](C)(Cc1ccccc1)NC(=O)[C@H](CO)NC(=O)CNC(=O)[C@H](Cc1c[nH]cn1)NC(=O)C(C)(C)NC(=O)[C@@H](N)Cc1c[nH]cn1)[C@@H](C)O)C(C)C)C(C)C)C(=O)N[C@@H](C)C(=O)N[C@@H](CC(N)=O)C(=O)N[C@H](C(N)=O)[C@@H](C)O` [Peptide 7] (H-H[Aib]HGS[αMeF]TSDVSK[αMeF]LDSK([γGlu-C18 diacid])AAQD[αMeF]VEWIANT-NH2; N-terminus assumed) as the molecule, how does the remaining at 5 min, 125 µM [1] read?
**A.** The remaining at 5 min, 125 µM was 81%.

**Q.** What about the remaining at 0.25 h, 125 µM [1] of the same molecule?
**A.** The remaining at 0.25 h, 125 µM was 35%.

**Q.** What about the remaining at 0.5 h, 125 µM [1] of the same molecule?
**A.** Its remaining at 0.5 h, 125 µM is 18%.

**Q.** What about the “WT % glucose change 120 min” value ([2]; 1.5 nmol/kg) of the same molecule?
**A.** Its value is 5.4%.

**Q.** And the “WT % glucose change 120 min” value ([2]; 5 nmol/kg)?
**A.** The value was −21.2%.

**Q.** What about the EC50 [3] of the same molecule?
**A.** The EC50 was 0.0307 nM.
